Data reported in ChEMBL document CHEMBL1152860, “Synthesis and antiproliferative activity of 3-amino-N-phenyl-1H-indazole-1-carboxamides” (2009).

Tests used:
Format in all cases: functional
HT-29 = assay: Growth inhibition of human HT-29 cells after 48 hrs by SRB assay; details: HT-29, 48 h
CCRF-CEM = assay: Growth inhibition of human CCRF-CEM cells after 48 hrs by SRB assay
HL-60(TB) = assay: Growth inhibition of human HL-60(TB) cells after 48 hrs by SRB assay; details: HL-60, 48 h
K562 = assay: Growth inhibition of human K562 cells after 48 hrs by SRB assay; details: K562, 48 h
MOLT-4 = assay: Growth inhibition of human MOLT4 cells after 48 hrs by SRB assay; details: MOLT-4, 48 h
RPMI-8226 = assay: Growth inhibition of human RPMI8226 cells after 48 hrs by SRB assay; details: RPMI-8226, 48 h
SR = assay: Growth inhibition of human SR cells after 48 hrs by SRB assay
A549 = assay: Growth inhibition of human A549 cells after 48 hrs by SRB assay; details: A549, 48 h
EKVX = assay: Growth inhibition of human EKVX cells after 48 hrs by SRB assay
HOP-62 = assay: Growth inhibition of human HOP62 cells after 48 hrs by SRB assay; details: HOP-62, 48 h
HOP-92 = assay: Growth inhibition of human HOP92 cells after 48 hrs by SRB assay; details: HOP-92, 48 h
NCI-H226 = assay: Growth inhibition of human NCI-H226 cells after 48 hrs by SRB assay; details: NCI-H226, 48 h
NCI-H23 = assay: Growth inhibition of human NCI-H23 cells after 48 hrs by SRB assay; details: NCI-H23, 48 h
NCI-H322M = assay: Growth inhibition of human NCI-H322M cells after 48 hrs by SRB assay
NCI-H460 = assay: Growth inhibition of human NCI-H460 cells after 48 hrs by SRB assay; details: NCI-H460, 48 h
NCI-H522 = assay: Growth inhibition of human NCI-H522 cells after 48 hrs by SRB assay; details: NCI-H522, 48 h
COLO 205 = assay: Growth inhibition of human COLO205 cells after 48 hrs by SRB assay; details: COLO 205, 48 h
HCC 2998 = assay: Growth inhibition of human HCC2998 cells after 48 hrs by SRB assay; details: HCC 2998, 48 h
HCT-116 = assay: Growth inhibition of human HCT116 cells after 48 hrs by SRB assay; details: HCT-116, 48 h
HCT-15 = assay: Growth inhibition of human HCT15 cells after 48 hrs by SRB assay; details: HCT-15, 48 h
LOX IMVI = assay: Growth inhibition of human LOXIMVI cells after 48 hrs by SRB assay
Malme-3M = assay: Growth inhibition of human MALME-3M cells after 48 hrs by SRB assay
M14 = assay: Growth inhibition of human M14 cells after 48 hrs by SRB assay; details: M14, 48 h
SK-MEL-2 = assay: Growth inhibition of human SK-MEL-2 cells after 48 hrs by SRB assay; details: SK-MEL-2, 48 h
SK-MEL-28 = assay: Growth inhibition of human SK-MEL-28 cells after 48 hrs by SRB assay; details: SK-MEL-28, 48 h
SK-MEL-5 = assay: Growth inhibition of human SK-MEL-5 cells after 48 hrs by SRB assay; details: SK-MEL-5, 48 h
UACC-257 = assay: Growth inhibition of human UACC257 cells after 48 hrs by SRB assay; details: UACC-257, 48 h
UACC-62 = assay: Growth inhibition of human UACC62 cells after 48 hrs by SRB assay; details: UACC-62, 48 h
IGROV-1 = assay: Growth inhibition of human IGROV1 cells after 48 hrs by SRB assay; details: IGROV-1, 48 h
OVCAR-3 = assay: Growth inhibition of human OVCAR-3 cells after 48 hrs by SRB assay; details: OVCAR-3, 48 h
OVCAR-4 = assay: Growth inhibition of human OVCAR4 cells after 48 hrs by SRB assay; details: OVCAR-4, 48 h
OVCAR-5 = assay: Growth inhibition of human OVCAR5 cells after 48 hrs by SRB assay; details: OVCAR-5, 48 h
OVCAR-8 = assay: Growth inhibition of human OVCAR8 cells after 48 hrs by SRB assay; details: OVCAR-8, 48 h
SK-OV-3 = assay: Growth inhibition of human SKOV3 cells after 48 hrs by SRB assay; details: SK-OV-3, 48 h
786-0 = assay: Growth inhibition of human 786-0 cells after 48 hrs by SRB assay; details: 786-0, 48 h
A498 = assay: Growth inhibition of human A498 cells after 48 hrs by SRB assay; details: A498, 48 h
ACHN = assay: Growth inhibition of human ACHN cells after 48 hrs by SRB assay
CAKI-1 = assay: Growth inhibition of human Caki1 cells after 48 hrs by SRB assay; details: CAKI-1, 48 h
RXF 393 = assay: Growth inhibition of human […] cells after 48 hrs by SRB assay; details: RXF 393, 48 h
SN12C = assay: Growth inhibition of human SN12C cells after 48 hrs by SRB assay
TK-10 = assay: Growth inhibition of human TK10 cells after 48 hrs by SRB assay; details: TK-10, 48 h
UO-31 = assay: Growth inhibition of human UO31 cells after 48 hrs by SRB assay; details: UO-31, 48 h
PC-3 = assay: Growth inhibition of human PC3 cells after 48 hrs by SRB assay; details: PC-3, 48 h
DU-145 = assay: Growth inhibition of human DU145 cells after 48 hrs by SRB assay; details: DU-145, 48 h
MCF7 = assay: Growth inhibition of human MCF7 cells after 48 hrs by SRB assay; details: MCF7, 48 h
NCI/ADR-RES = assay: Growth inhibition of human NCI/ADR-RES cells after 48 hrs by SRB assay
MDA-MB-231 = assay: Growth inhibition of human MDA-MB-231 cells after 48 hrs by SRB assay; details: MDA-MB-231, 48 h
[1] = Growth inhibition of human Hs 578T cells after 48 hrs by SRB assay
MDA-MB-435 = assay: Growth inhibition of human MDA-MB-435 cells after 48 hrs by SRB assay; details: MDA-MB-435, 48 h
BT-549 = assay: Growth inhibition of human BT549 cells after 48 hrs by SRB assay; details: BT-549, 48 h
T47D = assay: Growth inhibition of human T47D cells after 48 hrs by SRB assay
KM12 = assay: Growth inhibition of human KM12 cells after 48 hrs by SRB assay; details: KM12, 48 h
SW-620 = assay: Growth inhibition of human SW620 cells after 48 hrs by SRB assay; details: SW-620, 48 h
SF-268 = assay: Growth inhibition of human SF268 cells after 48 hrs by SRB assay; details: SF-268, 48 h
SF-295 = assay: Growth inhibition of human SF295 cells after 48 hrs by SRB assay; details: SF-295, 48 h
SF-539 = assay: Growth inhibition of human SF539 cells after 48 hrs by SRB assay; details: SF-539, 48 h
SNB-19 = assay: Growth inhibition of human SNB19 cells after 48 hrs by SRB assay; details: SNB-19, 48 h
SNB-75 = assay: Growth inhibition of human SNB75 cells after 48 hrs by SRB assay; details: SNB-75, 48 h
U-251 = assay: Growth inhibition of human U251 cells after 48 hrs by SRB assay; details: U-251, 48 h

`COc1ccc(NC(=O)Nc2n[nH]c3ccccc23)cc1` gave a GI50 (HT-29) greater than 100 µM, a GI50 (CCRF-CEM) of 59.6 µM and a GI50 (HL-60(TB)) greater than 100 µM. The GI50 (K562) was greater than 100 µM, the GI50 (MOLT-4) was greater than 100 µM and the GI50 (RPMI-8226) was greater than 100 µM. It also gave a GI50 (SR) greater than 100 µM, a GI50 (A549) greater than 100 µM and a GI50 (EKVX) greater than 100 µM. For the same compound, the GI50 (HOP-62) was greater than 100 µM, the GI50 (HOP-92) was greater than 100 µM and the GI50 (NCI-H226) was greater than 100 µM. The GI50 (NCI-H23) was greater than 100 µM, the GI50 (NCI-H322M) was greater than 100 µM and the GI50 (NCI-H460) was greater than 100 µM. It also gave a GI50 (NCI-H522) greater than 100 µM, a GI50 (COLO 205) greater than 100 µM and a GI50 (HCC 2998) greater than 100 µM. The GI50 (HCT-116) was greater than 100 µM, the GI50 (HCT-15) was greater than 100 µM and the GI50 (LOX IMVI) was greater than 100 µM. It also gave a GI50 (Malme-3M) greater than 100 µM, a GI50 (M14) greater than 100 µM and a GI50 (SK-MEL-2) greater than 100 µM. It also gave a GI50 (SK-MEL-28) greater than 100 µM, a GI50 (SK-MEL-5) greater than 100 µM and a GI50 (UACC-257) greater than 100 µM. For the same compound, the GI50 (UACC-62) was greater than 100 µM, the GI50 (IGROV-1) was greater than 100 µM and the GI50 (OVCAR-3) was greater than 100 µM. It also gave a GI50 (OVCAR-4) greater than 100 µM, a GI50 (OVCAR-5) greater than 100 µM and a GI50 (OVCAR-8) greater than 100 µM. It also gave a GI50 (SK-OV-3) greater than 100 µM, a GI50 (786-0) greater than 100 µM and a GI50 (A498) greater than 100 µM. For the same compound, the GI50 (ACHN) was greater than 100 µM, the GI50 (CAKI-1) was greater than 100 µM and the GI50 (RXF 393) was greater than 100 µM. For the same compound, the GI50 (SN12C) was greater than 100 µM, the GI50 (TK-10) was greater than 100 µM and the GI50 (UO-31) was greater than 100 µM. The GI50 (PC-3) was greater than 100 µM, the GI50 (DU-145) was greater than 100 µM and the GI50 (MCF7) was greater than 100 µM. It also gave a GI50 (NCI/ADR-RES) greater than 100 µM, a GI50 (MDA-MB-231) greater than 100 µM and a GI50 [1] greater than 100 µM. The GI50 (MDA-MB-435) was greater than 100 µM, the GI50 (BT-549) was greater than 100 µM and the GI50 (T47D) was 100 µM. The GI50 (KM12) was greater than 100 µM, the GI50 (SW-620) was greater than 100 µM and the GI50 (SF-268) was greater than 100 µM. It also gave a GI50 (SF-295) greater than 100 µM, a GI50 (SF-539) greater than 100 µM and a GI50 (SNB-19) greater than 100 µM. For the same compound, the GI50 (SNB-75) was greater than 100 µM and the GI50 (U-251) was greater than 100 µM.

With `COc1ccc(NC(=O)n2nc(N)c3ccccc32)cc1OC` the GI50 (HT-29) was 48.2 µM, the GI50 (CCRF-CEM) was 36.7 µM and the GI50 (HL-60(TB)) was 27.9 µM. The GI50 (K562) was 41.2 µM, the GI50 (MOLT-4) was 39.4 µM and the GI50 (RPMI-8226) was 21.1 µM. For the same compound, the GI50 (SR) was 29.3 µM, the GI50 (A549) was 45.8 µM and the GI50 (EKVX) was 54.1 µM. It also gave a GI50 (HOP-62) of 75.2 µM, a GI50 (HOP-92) of 24.6 µM and a GI50 (NCI-H226) of 83.1 µM. It also gave a GI50 (NCI-H23) of 83.5 µM, a GI50 (NCI-H322M) greater than 100 µM and a GI50 (NCI-H460) of 34.5 µM. It also gave a GI50 (NCI-H522) of 34.9 µM, a GI50 (COLO 205) of 85.9 µM and a GI50 (HCC 2998) of 61.1 µM. The GI50 (HCT-116) was 43.5 µM, the GI50 (HCT-15) was 44.1 µM and the GI50 (LOX IMVI) was 49.3 µM. For the same compound, the GI50 (Malme-3M) was greater than 100 µM, the GI50 (M14) was 64.9 µM and the GI50 (SK-MEL-2) was 37.2 µM. It also gave a GI50 (SK-MEL-28) greater than 100 µM, a GI50 (SK-MEL-5) of 27.9 µM and a GI50 (UACC-257) of 73.6 µM. For the same compound, the GI50 (UACC-62) was 52.3 µM, the GI50 (IGROV-1) was 18.1 µM and the GI50 (OVCAR-3) was 92 µM. It also gave a GI50 (OVCAR-4) of 63.2 µM, a GI50 (OVCAR-5) of 45.5 µM and a GI50 (OVCAR-8) of 39.7 µM. It also gave a GI50 (SK-OV-3) greater than 100 µM, a GI50 (786-0) greater than 100 µM and a GI50 (A498) of 30.3 µM. The GI50 (ACHN) was 58.3 µM, the GI50 (CAKI-1) was greater than 100 µM and the GI50 (RXF 393) was 95.2 µM. It also gave a GI50 (SN12C) greater than 100 µM, a GI50 (TK-10) of 92.4 µM and a GI50 (UO-31) of 28.5 µM. The GI50 (PC-3) was 35.5 µM, the GI50 (DU-145) was 73.1 µM and the GI50 (MCF7) was 29.5 µM. It also gave a GI50 (NCI/ADR-RES) of 37.6 µM, a GI50 (MDA-MB-231) of 53.6 µM and a GI50 [1] of 43.3 µM. The GI50 (MDA-MB-435) was greater than 100 µM, the GI50 (BT-549) was 25.9 µM and the GI50 (T47D) was 33 µM. For the same compound, the GI50 (KM12) was 67.9 µM, the GI50 (SW-620) was greater than 100 µM and the GI50 (SF-268) was 49.6 µM. It also gave a GI50 (SF-295) of 37.6 µM, a GI50 (SF-539) of 95.9 µM and a GI50 (SNB-19) greater than 100 µM. The GI50 (SNB-75) was 30.6 µM and the GI50 (U-251) was 61.7 µM.
